Data as given in patent EP3120851A1, “4-AMINO-6-(2,6-DICHLOROPHENYL)-8-METHYL-2-(PHENYLAMINO)-PYRIDO[2,3-D]PYRIMIDIN-7(8H)-ONE FOR TREATMENT OF SOLID CANCERS” (Pangaea Biotech S.L., priority 2015, dated 2017).

Legend:
Assay in all cases: MTT proliferation assay, single agent
Assay type in all cases: cell-based
U118MG = details: Homo sapiens, U-118-MG, GBM, ROS1-FIG, 72 h, mean of several independent experiments
Method: (§1) The compound of formula (1) was tested using a Thiazolyl Blue Tetrazolium Bromide (MTT) proliferation assay in a panel of tumor cell lines of different origins.
(§2) All culture materials were obtained from Biological Industries (Kibbutz Beit Haemek, Israel) or Invitrogen (Paisley, Scotland, United Kingdom). The non-tumor cell lines HF and HACAT were provided by Vall d'Hebrón Hospital and GmbH, respectively. The PC9 naïve cell line was provided by Mayumi Ono and, the H3122, HCC78 and 11-18 by Daniel Costa. The PC9-GR1, PC9-GR2, PC9-GR3, PC9-GR4, PC9-GR5 and PC9-ER cell lines were derived in house by exposing the parental PC9 cell line to increasing concentrations of erlotinib (ER) or gefitinib (GR). The rest of the cell lines in which compound (1) was tested were purchased from ATCC (H23, H1975, H2228, A549, H460, Calu-6, H1650, SK-MES-1, EBC1, SNU1, AGS, N87, PC3, BxPC3, DLD1, HT29, SW48, SCC9,FaDu, AU565, Gingival, Prostate, SU-DHL-1 and A431). All cell lines were maintained in RPMI medium supplemented with 10% FBS, 50 µg/mL penicillin-streptomycin and 2 mM L-Glutamine. All cells were grown in a humidified atmosphere with 5% CO2 at 37°C.
(§3) Cell viability in response to single agent treatment was assessed by the Thiazolyl Blue Tetrazolium Bromide (MTT) (Sigma, St Louis, MO) assay. Cells from each cell line were seeded at 2000 to 10000 per well in 96-well plates. […] After treatment, cells were incubated with medium containing MTT (0.75 mg/mL in medium) for 1-2 h at 37°C. Culture medium with MTT was removed and formazan crystals reabsorbed in 100 µL DMSO (Sigma, St. Louis, MO). Cell viability was determined by measuring the absorbance at 492 nm, using a microplate reader (BioWhittaker, Walkersville, MD).
(§4) The IC50s shown are the mean of several independent experiments. Standard errors are also listed Table 2. SCC means squamous cell carcinoma, ADC means adenocarcinoma, GBM means glioblastoma.

H460 = details: Homo sapiens, NCI-H460, Lung ADC, KRAS, 72 h, mean of several independent experiments
Method: as §1, §2, §3, §4

HT29 = details: Homo sapiens, HT-29, Colon ADC, BRAF V600E, 72 h, mean of several independent experiments
Method: as §1, §2, §3, §4

PC3 = details: Homo sapiens, PC-3, Prostate ADC, DDR2 wt, 72 h, no standard error printed
Method: as §1, §2, §3, §4

L239R = details: SCC Lung, DDR2 mutated, 72 h, mean of several independent experiments
Method: as §1, §2, §3, §4

PC9-GR1 = details: Lung ADC, EGFR ex19, 72 h, mean of several independent experiments
Method: as §1, §2, §3, §4

H23 = details: Homo sapiens, NCI-H23, Lung ADC, KRAS, 72 h, mean of several independent experiments
Method: as §1, §2, §3, §4

PC9 = details: Homo sapiens, PC-9, Lung ADC, EGFR ex19, 72 h, mean of several independent experiments
Method: as §1, §2, §3, §4

BxPC3 = details: Homo sapiens, BXPC-3, Pancreas, mut TP53, 72 h, mean of several independent experiments
Method: as §1, §2, §3, §4

DLD1 = details: Homo sapiens, DLD-1, Colon ADC, KRAS, 72 h, mean of several independent experiments
Method: as §1, §2, §3, §4

PC9-GR4 = details: Lung ADC, EGFR ex19, 72 h, mean of several independent experiments
Method: as §1, §2, §3, §4

A549 = details: Homo sapiens, Lung ADC, KRAS, 72 h, mean of several independent experiments
Method: as §1, §2, §3, §4

H520 = details: Homo sapiens, NCI-H520, SCC Lung, DDR2 wt, 72 h, mean of several independent experiments
Method: as §1, §2, §3, §4

H1703 = details: Homo sapiens, NCI-H1703, SCC Lung, DDR2 wt, 72 h, mean of several independent experiments
Method: as §1, §2, §3, §4

FaDu = details: Homo sapiens, SCC Head&Neck, DDR2 wt, 72 h, mean of several independent experiments
Method: as §1, §2, §3, §4

PC9-GR5 = details: Lung ADC, EGFR ex19, 72 h, mean of several independent experiments
Method: as §1, §2, §3, §4

IC50 (H460): 1 µM
IC50 (HT29): 2 µM
IC50 (PC3): 3.4 µM
IC50 (PC9-GR1): 1.45 µM
IC50 (PC9): 2.85 µM
IC50 (BxPC3): 1.8 µM
IC50 (DLD1): 1 µM
IC50 (PC9-GR4): 2.1 µM
IC50 (A549): 0.49 µM
IC50 (H520): 0.35 µM
IC50 (H1703): 0.55 µM
IC50 (PC9-GR5): 1.61 µM
Structure (SMILES): Cn1c(=O)c(-c2c(Cl)cccc2Cl)cc2c(N)nc(Nc3ccccc3)nc21 [Compound (1), 4-amino-6-(2,6-dichlorophenyl)-8-methyl-2-(phenylamino)-pyrido[2,3-d]pyrimidin-7(8H)-one]
IC50 (U118MG): 2.6 µM
IC50 (L239R): 0.75 µM
IC50 (H23): 1.57 µM
IC50 (FaDu): 4.85 µM
